Assay results as given in US4640922A, “3N-substituted 3,4-dihydropyrimidines as agents for treating disorders of cardiovascular system” (Suntory Limited, priority 1984, dated 1987).
Like-named read-outs stand apart in the source and are kept apart here.

Tests used:
[1] = tested on: coronary artery (isolated heart); test: Coronary vascular dilative effect, isolated perfused guinea pig heart, Langendorff's method (perfusion pressure)
Description: The coronary vascular dilative effect of 3N-substituted 3,4-dihydropryrimidine derivatives was tested.
Heartly guinea pigs (weight 400-500 g) were clubbed dead and their hearts were immediately isolated. The hearts were perfused with Krebs-Henseleit solution bubbled with a mixture of 95% O2 +5% CO2 and maintained at 37° C. at a certain rate of 6 ml/minute according to Langendorff's method [J. Pharmacol. Methods 2, 143 (1979)]. The perfusion pressure was determined by a pressure transducer. Samples were prepared by dissolving 1 mg of a test compound in 1 ml of a mixture of dimethylsulfoxide and physiological saline (1:9) and diluting with physiological saline the solution to the predetermined concentration. 0.1 ml of the diluted solution was administered into the coronary artery via a rubber tube connected to an aorta cannula to obtain ED50 (μg/heart) data as shown in Table 1. The numbers of the compounds in the Table correspond respectively to those of the working examples described above.

vertebral artery = test: Blood flow and blood vessel resistance of vertebral artery in anesthetized dogs; assay type: in vivo, dog; details: Canis lupus familiaris, iv, % of value before administration, average ± standard error
Description: (§1) The pharmacological effects of the compounds of the present invention with respect to the blood flow and blood vessel resistance of vertebral artery and systemic blood pressure (average pressure) in anesthetized dogs. […] The first and second ribs were cut open to expose the left vertebral artery. A probe was attached to the origin of the artery and the blood flow was measured with an electromagnetic rheometer (Model MF-27, product of Nihon Koden K.K.) At the same time, continuous measurement of the following parameters was made: systemic blood pressure (average pressure) at the right femoral artery, the ECG in the second induction period, the heart beat with a tachometer driven by the R wave, and the blood vessel resistance determined by loading a multiplication/division unit (EO-601 G, product of Nihon Koden K.K.) with the average values of blood pressure and blood flow in the vertebral artery. All of these parameters were recorded simultaneously on a polygraph (RM-600, product of Nihon Koden, K.K.) All of the test compounds were injected through a cannula inserted into the femoral […].

systemic blood pressure = test: Systemic blood pressure (average pressure) in anesthetized dogs; assay type: in vivo, dog; details: Canis lupus familiaris, iv, % of value before administration, average ± standard error, read-out: Average blood pressure, percentage compared with control
Description: as §1

[2] = read-out: Vertebral artery blood flow, percentage compared with control
[3] = read-out: Vertebral artery vessel resistance, percentage compared with control

## CCOC(=O)C1=C(C)N=C(C)N(C(=O)OCC)C1c1ccccc1Cl (centres unmarked) [Compound 22]
[1]; 0.1 ml injected into coronary artery, isolated guinea pig heart, 37° C., 6 ml/minute
  Pharmacological data ED50: 0.086 μg/heart
[1]; Langendorff's method, guinea pig heart
  coronary vascular dilative effects (in words): extremely strong coronary vascular dilative effects
Vertebral artery; [2]
  response vs control in vivo at 0.001 mg/kg: 105%
  response vs control in vivo at 0.003 mg/kg: 119%
  response vs control in vivo at 0.01 mg/kg: 136%
  response vs control in vivo at 0.03 mg/kg: 188%
  response vs control in vivo at 0.1 mg/kg: 229%
Vertebral artery; [3]
  response vs control in vivo at 0.001 mg/kg: 96%
  response vs control in vivo at 0.003 mg/kg: 80%
  response vs control in vivo at 0.01 mg/kg: 65%
  response vs control in vivo at 0.03 mg/kg: 49%
  response vs control in vivo at 0.1 mg/kg: 39%
Systemic blood pressure; 0.001 mg/kg
  response vs control in vivo at 0.001 mg/kg: 94%
Systemic blood pressure; 0.003 mg/kg
  response vs control in vivo at 0.003 mg/kg: 89%
Systemic blood pressure; 0.01 mg/kg
  response vs control in vivo at 0.01 mg/kg: 82%
Systemic blood pressure; 0.03 mg/kg
  response vs control in vivo at 0.03 mg/kg: 85%
Systemic blood pressure; 0.1 mg/kg
  response vs control in vivo at 0.1 mg/kg: 79%
